Experimental data taken from patent publication US10188605B2, “Nanoparticles and nanoparticle compositions” (priority 2010, dated 2019).
Several values for one entry are separate records, joined by “and”; a condition that tells them apart may be missing. Equal entries are not always repeated.

Experiments:
[1] = Release of entrapped pyrene from SCMs by fluorescence (I3/I1 ratio); assay type: physicochemical; settings: uncrosslinked reference
Description: The intensity ratio between the third (˜384 nm) and the first band (˜372 nm), in particular, is sensitive to changes in the environment.

[2] = Critical micelle concentration of surfactant 1 (surface tension; pyrene I3/I1 fluorescence); assay type: physicochemical
Description: Pyrene was used as a surrogate for a hydrophobic drug because of its environmentally sensitive fluorescence. […] The intensity ratio between the third (˜384 nm) and the first band (˜372 nm), in particular, is sensitive to changes in the environment. […] The CMC of the surfactant is about 1.4×10^−4 M according to surface tension measurement and 1.5×10^−4 M, according to FIG. 15.

[3] = versus camptothecin; cited from earlier work
[4] = in water at 20° C.; cited from earlier work

## C#CC[N+](CC#C)(CC#C)Cc1ccc(OCCCCCCCCCCCC)cc1.[Br-] [Compound 1, 4-(Dodecyloxy)benzyltripropargylammonium bromide]
[1]
  pyrene I3/I1 in uncrosslinked surfactant below the CMC: 0.70
[2]; in water
  critical micelle concentration: 150 µM and 140 µM
[2]; pyrene fluorescence
  CMC according to pyrene I3/I1 ratio (FIG. 15): 150 µM
[2]; surface tension
  CMC according to surface tension measurement: about 1.4×10^−4 M

## CC[C@@](O)(C(=O)[O-])c1cc2n(c(=O)c1CO)Cc1cc3ccccc3nc1-2.[Na+] [CAM-Na]
[3]
  biological activity relative to the parent drug: one-tenth

## CCCCCCCCCCCC[N+](C)(C)C.[Br-] [Dodecyltrimethyl ammonium bromide]
[4]
  micellar aggregation number: 55
